Among the data in publication PMC8224775, “Five Tetramic Acid Derivatives Isolated from the Iranian Fungus Colpoma quercinum CCTU A372” (Biomolecules, 2021) are IC50 values, retold here.

This assay relates to mouse fibroblast L-929. Nature of the assay: 5-day MTT cytotoxicity assay. Format: cell-based. As to conditions: L-929, 5-day MTT assay. The protocol: Cytotoxicity of compounds 1‒5 was initially determined against two cancer cell lines (mouse fibroblasts L-929 and human endocervical adenocarcinoma KB-3.1) by using a 5-day MTT assay according to an established procedure.
In 96-well flat-bottom microtiter plates, cell lines with serial dilution of the test compounds (final range: 37 to 0.6 × 10^−3 µg/mL) were incubated for five days. After five days, the cells were dyed using 3-(4,5-dimethyl-2-thiazolyl)-2,5-diphenyl-2H-tetrazolium bromide (MTT), which is only converted to its purple formazan derivative by living cells. The half-maximum inhibitory concentration (IC50 in µM) was calculated via the colorimetric method in a microplate reader using absorption at 595 nm. In addition, when an inhibition with an IC50 < 50 µM was observed, other cell lines were subjected to the test compounds to evaluate their further cytotoxicity: PC-3 (human prostate adenocarcinoma), SK-OV-3 (human ovary adenocarcinoma), MCF-7 (human breast adenocarcinoma), A-431 (human squamous carcinoma), and A549 (human lung carcinoma). A detailed procedure, including the colorimetric method to determine the cell viability, can be found in the SI.
Protocol: Cytotoxicity Assay
The assay was co nducted in 9 6-well flat -botto m microtiter plates using the parameters summarised in T able S2 and as described in [S2]. Cell l ines L-929 and KB-3.1 were incubated at 37 °C under 10 % CO2 in Gibco™ DMEM medium (T her mo Fisher Scientific, Waltham, M A, USA) supplemented with 10 % FBS. A microtiter plate was filled wit h 120 μ L o f this suspensio n (50,000/mL) in each well. Seperatel y, a nother microti ter plate wa s filled wit h 100 μL of gro wth medium in each well. Then, 50 μ L of the test compound solutions (1 mg/mL) were given to wells of the first column in two replicates (one compound per row). Cells without additives and MeOH were used as nega tive controls. Starting from the first column, 50 μ L of the solutions were gradually transferred to the next column, the contents thoroughly mixed, and 50 μL transferred to the following column. This created a serial dilution of the test compounds ranging from 333 μ g/mL to 1.9×10-3 μg/ mL. T he re mai ni ng 50 μ L after column twelve were discarded. From this microtiter plate, 60 μ L of the solutions fro m 111 μ g/mL to 1.9×10-3 μg/mL we r e give n to t he firs t p late co ntai ni ng 1 2 0 μ L of the cell suspensions (i.e. the highest co ncentration 333 μ g/ mL wa s no t used). T his resul ted in fi nal compo und concentratio ns rangi ng fro m 37 μ g/mL to 0.6×10-3 μg/ mL. After 5 days o f incubatio n under the aforementioned incubatio n conditions, the half maximu m inhibitory co ncentrations (IC50) were deter mined using a colorimetric tetrazolium d ye MT T assa y [S3]. For this, 20 μ L of a 5 mg/mL solution of 3-(4,5-dimethyl-2 -thiazolyl) -2,5-diphenyl-2H-tetrazolium br omide (MTT) were added to each well and incubated for two hours at 37 °C. T hen, the microtiter plate was ce ntrifuged (3,000 rpm, 5 min) and the supernatant removed by holding the plate upside-down and gentle shaking. Afterwards, the wells were washed using 100 μ L of phosphate buffered saline (PBS). T he plate was a gain ce ntrifuged a nd the supernata nt re mo ved as described before.
T hen, 1 0 0 μ L of an isopropanol:HCl solution (1L isopropanol+4 mL HCl 37 % w/v) were added to the wells. After incubating for 10 min at ambient temperature, the absorption of the wells at 595 nm was measured with an Infinite® 200 Pro microplate reader (TECAN, Männedorf, Schweiz). The absorption values of the cells without additives were averaged and set to 100 % cell viability. Then, the means of absorption of the two compound replicates were set in relation to the blank media. T hese percentage values were plotted against the concentratio n range (37 μ g/mL to 0.6×10−3 μg/ mL). T he IC50 value was r ead fro m the plot (in μ g/ mL) a nd the uni ts conversed […]
to μM. […]

Like-named read-outs stand apart in the source and are kept apart here.

On to `CC(=O)OC(C(=O)O)C(C)C1C(C)=CC2CC(C)CCC2C1(C)C(O)=C1C(=O)C(C)N(C)C1=O` (centres unmarked) [compound 1, Colposetin A], for which the IC50 entry was “not active”.
In the case of `CCC(C(=O)O)C1C(C)=CC2CC(C)CCC2C1(C)C(O)=C1C(=O)C(C)N(C)C1=O` (centres unmarked) [compound 2, Colposetin B], for the setting “Mus musculus, L929, 120 h, read-out: IC50”, the IC50 is 57.5 µM.
Regarding `CC1=CC2CC(C)CCC2C2(C)C(=O)OC(C(=O)O)C(C)C12` (centres unmarked) [compound 3, Colposetin C], the concentration for half-maximal inhibition (IC50) entry was “not active”.
Still for that read-out and setting: with `CC(C=CCC(C)CCC=C(C)C(=O)C1=C(O)C(C)N(C)C1=O)=CC(C)C(O)C(=O)O` (centres unmarked) [compound 4, Colpomenoic acid A] the entry was “not active”.
On the same count and under the same terms, the value for `CC(C=CCC(C)C=CC=C(C)C(=O)C1=C(O)C(C)N(C)C1=O)=CC(C)C(O)C(=O)O` (centres unmarked) [compound 5, Colpomenoic acid B] was “not active”.
